Reference: patent publication US20230416258A1, “BENZ[…], AND PREPARATION METHOD THEREFOR AND USE THEREOF” (CHINA PHARMACEUTICAL UNIVERSITY, priority 2020, published 2023)
Like-named read-outs stand apart in the source and are kept apart here.

What was measured:
[1] = test system: GABA-activated Cl− current (GABAA receptor) in HEK 293T cells; assay: Effect of drugs on GABA-activated current in cells by cell patch clamp; type: cell-based; conditions: for Enhancement percentage Emax for 2 μM GABA current (within 3-30 μM): corresponding concentration 20 μM
Outline: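 Whole-cell patch clamp of HEK 293T cells held at −60 mV; compound applied together with 2 μM GABA in extracellular buffer (140 mM NaCl, HEPES, pH 7.4). Enhancement of GABA-evoked Cl− current recorded in the same cell, reported as maximal enhancement (Emax) and corresponding concentration.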

hCMEC/D3 cells = assay: Rate of drug passing through in vitro blood-brain barrier (Transwell); type: in vitro ADME; conditions: hCMEC/D3 monolayer, compound 0.1 mg/mL
Outline: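 Confluent hCMEC/D3 monolayers grown 10 days on Transwell inserts (5.0 μm pores). Compound at 0.1 mg/mL added to the lower chamber; upper-chamber concentration measured after 5 min, with permeability expressed as upper/lower concentration ×100%.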

SD rats [2] = assay: Induction of anesthesia in rats by continuous infusion of drug for 20 min; type: in vivo; conditions: initial dose 20 mg/kg bolus, maintenance dose 0.2 (mg/kg)/min for 20 min, after infusion completed
Description: SD rats (male, 200-280 g) were randomly grouped and subjected to administration of an initial dose by rapid bolus via the tail vein, followed by a continuous infusion with a maintenance dose for 20 min.
After the infusion was completed, the duration of the righting reflex and the time from wake-up to recovery in rats were recorded.

[3] = In vitro plasma half-life of drug; type: in vitro ADME, SD rats; conditions: SD rat plasma, 37° C.; for half-life at 0.4 mg/mL: plasma (heparin sodium)
Description: Preparation of plasma: after the SD rats were fasted and kept with water for 12 h, blood was collected through orbital venous plexus. The freshly collected blood was added into a centrifuge tube containing heparin sodium and centrifuged at 5000 rpm for 10 min at 4° C. The supernatant was slowly pipetted and subpackaged. Finally, the collected SD rat plasma was sealed, marked, and stored at −20° C. for later use.
Preparation of target compound sample: the target compound was precisely weighed by an analytical balance and prepared into a stock solution at a concentration of 2 mg/mL (solvent: Vacetone:VTween 80:Vnormal saline=1:1:3) for later use.
Determination of in vitro half-life of target compound sample: 20 μL of test compound stock solution and 80 μL of rat plasma were mixed uniformly. Nine parallel ep tubes were taken, marked as corresponding test tubes of 0 min, 1 min, 2 min, 3 min, 5 min, 10 min, 15 min, 20 min, and 30 min, respectively, and placed in a water bath at 37° C. for incubation for 0 min, 1 min, 2 min, 3 min, 5 min, 10 min, 15 min, 20 min, and 30 min, respectively. 50 μL of mixed solution were taken from the corresponding ep tube at each time point, and […] of acetonitrile was added for precipitating protein. The mixture was vortexed for 10 min using a mixer and centrifuged at 12000 rpm for 15 min. Then, the supernatant was centrifuged at 12000 rpm for 10 min. The optimal detection method for the target compound in the MRM mode was determined using Intellistat software in UPLC-MS/MS, the peak area of the corresponding mass spectrum was integrated, and the plasma half-life of the compound was calculated.

KM mice = assay: Test for drug-induced disappearance of righting reflex in mice; type: in vivo; conditions: single rapid bolus via tail vein
Outline: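 Latency to, and duration of, righting reflex loss were recorded after one fast tail-vein bolus. Animals: randomized female KM mice weighing 18–25 g.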

SD rats [4] = assay: Test for drug-induced disappearance of righting reflex in rats; type: in vivo; conditions: single rapid bolus via tail vein
Outline: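 Male SD rats (200-280 g) were randomly grouped and given a single rapid bolus dose via the tail vein. Latency to loss of righting reflex and its duration were recorded.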

[5] = target: voltage-gated potassium channel hERG (Homo sapiens (Human), UniProt Q12809); assay: Predictor hERG fluorescence polarization assay; type: binding
Description: In this experiment, IC50 was calculated by detecting the effect of compounds at 8 concentrations on the […]. The procedures were performed exactly as for Predictor™ hERG fluorescence polarization assay kit. Before measuring fluorescence polarization, the assay plate was covered to protect the reagents from light and evaporation, and after incubation at room temperature for 2-4 h, the sample plate was centrifuged to read the fluorescence polarization value, with the excitation light at 540 nm and the emission light at 573 nm.

[6] = read-out: Positive enhancement EC50 (μM) for 2 μM GABA-induced current, −60 mV
[7] = 2 μM GABA, −60 mV, read-out: Positive enhancement EC50 (μM) for 2 μM GABA-induced current

voltage-gated potassium channel hERG, sequence (Q12809 whole entry, looked up): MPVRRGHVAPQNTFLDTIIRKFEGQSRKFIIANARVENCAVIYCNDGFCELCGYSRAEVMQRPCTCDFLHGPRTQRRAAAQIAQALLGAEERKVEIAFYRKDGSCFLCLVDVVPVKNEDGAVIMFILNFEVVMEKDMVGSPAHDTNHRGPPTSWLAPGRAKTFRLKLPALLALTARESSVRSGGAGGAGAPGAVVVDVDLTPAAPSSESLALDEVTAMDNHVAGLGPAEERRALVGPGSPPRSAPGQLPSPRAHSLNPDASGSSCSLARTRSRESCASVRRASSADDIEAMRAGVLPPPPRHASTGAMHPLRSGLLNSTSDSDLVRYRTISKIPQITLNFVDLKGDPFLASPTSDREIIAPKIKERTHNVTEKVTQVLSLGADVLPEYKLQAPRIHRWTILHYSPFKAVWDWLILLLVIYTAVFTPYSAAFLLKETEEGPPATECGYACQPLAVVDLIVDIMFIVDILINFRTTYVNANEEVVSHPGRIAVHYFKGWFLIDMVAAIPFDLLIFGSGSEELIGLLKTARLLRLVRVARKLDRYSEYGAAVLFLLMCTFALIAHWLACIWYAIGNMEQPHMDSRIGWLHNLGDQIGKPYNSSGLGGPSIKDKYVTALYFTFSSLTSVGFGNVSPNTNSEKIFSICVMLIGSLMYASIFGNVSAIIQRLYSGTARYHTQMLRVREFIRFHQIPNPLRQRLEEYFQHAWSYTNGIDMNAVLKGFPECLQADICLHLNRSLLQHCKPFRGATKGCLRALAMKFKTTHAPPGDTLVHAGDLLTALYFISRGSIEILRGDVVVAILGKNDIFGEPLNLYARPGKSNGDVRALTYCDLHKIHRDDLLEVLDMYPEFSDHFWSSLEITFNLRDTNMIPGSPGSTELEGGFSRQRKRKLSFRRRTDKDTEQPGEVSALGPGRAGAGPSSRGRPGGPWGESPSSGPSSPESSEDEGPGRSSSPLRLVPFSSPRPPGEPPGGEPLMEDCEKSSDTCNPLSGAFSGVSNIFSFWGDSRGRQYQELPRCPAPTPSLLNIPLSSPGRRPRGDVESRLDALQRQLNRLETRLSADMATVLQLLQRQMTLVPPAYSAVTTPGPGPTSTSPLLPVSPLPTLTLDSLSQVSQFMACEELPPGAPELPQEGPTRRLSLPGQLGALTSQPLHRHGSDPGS

| SMILES | EC50 [1, 6] | Enhancement percentage Emax for 2 μM GABA current (within 3-30 μM) ([1]; −60 mV) | In vitro blood-brain barrier, compound permeability at 5 min (hCMEC/D3 cells) | Duration of anesthesia (SD rats [2]) | Time from wake-up to recovery (SD rats [2]) | half-life at 0.4 mg/mL [3] | Duration (KM mice; 30 mg/kg) | Latency (KM mice; 30 mg/kg) | Latency (SD rats [4]) | Duration (KM mice; 60 mg/kg) | Latency (KM mice; 60 mg/kg) | IC50 [5] | EC50 [1, 7] | IC50 ([5]; hERG channel, fluorescence polarization, 8 concentrations, read-out: IC50) | In vitro plasma half-life [3] | Duration (SD rats [4]) |
| --- | --- | --- | --- | --- | --- | --- | --- | --- | --- | --- | --- | --- | --- | --- | --- | --- |
| COC(=O)CC[C@@H]1N=C(c2ccccc2Cl)c2cc(Br)ccc2-n2c(SCCN3CCOCC3)nnc21 [Compound 82, methyl (S)-3-(8-bromo-6-(2-chlorophenyl)-1-((2-morpholinoethyl)thio)-4H-benzo[f][1,2,4]triazolo[4,3-a][1,4]diazepin-4-yl)propionate] | 0.39 µM | 311% (20 μM) | 80.1% | 10.27 min | 20.8 min | 22.2 s | 8.37 min | 0.31 min | 0.41 min | – | – | – | – | – | – | – |
| COC(=O)CC[C@@H]1N=C(c2ccccc2Cl)c2cc([N+](=O)[O-])ccc2-n2c(SCCN3CCOCC3)nnc21 [Compound 83, methyl (S)-3-(8-nitro-6-(2-chlorophenyl)-1-((2-morpholinoethyl)thio)-4H-benzo[f][1,2,4]triazolo[4,3-a][1,4]diazepin-4-yl)propionate] | 0.57 µM | 287% (20 μM) | 77.3% | 28.66 min | 16.3 min | 16.8 s | 7.89 min | 0.28 min | 0.16 min | 14.58 min | 0.19 min | – | – | – | – | – |
| COC(=O)CC[C@@H]1N=C(c2ccccc2Cl)c2cc(Br)ccc2-n2c(SCCCN3CCN(CCO)CC3)nnc21 [Compound 97, methyl (S)-3-(8-bromo-6-(2-chlorophenyl)-1-((3-(4-(2-hydroxyethyl)piperazin-1-yl)propyl)thio)-4H-benzo[f][1,2,4]triazolo[4,3-a][1,4]diazepin-4-yl)propionate] | 0.84 µM | 238% (20 μM) | 84.6% | 6.43 min | 17.4 min | 36.6 s | – | – | 0.18 min | 17.07 min | 0.93 min | – | – | – | – | – |
| COC(=O)CC[C@@H]1N=C(c2ccccc2)c2cc(Cl)ccc2-n2c(SC)nnc21 [Compound 102, methyl (S)-3-(8-chloro-1-(methylthio)-6-phenyl-4H-benzo[f][1,2,4]triazolo[4,3-a][1,4]diazepin-4-yl)propionate] | 0.48 µM | 291% (20 μM) | 87.1% | 4.27 min | 25.5 min | 16.2 s | 17.24 min | 1.13 min | 0.37 min | 7.47 min | 0.39 min | – | – | – | – | – |
| COC(=O)CC[C@@H]1N=C(c2ccccn2)c2cc(Br)ccc2-n2c(SCc3ccncc3)nnc21 [Compound 126, methyl (S)-3-(8-bromo-6-(pyridin-2-yl)-1-(((pyridin-4-yl)methyl)thio)-4H-benzo[f][1,2,4]triazolo[4,3-a][1,4]diazepin-4-yl)propionate] | 0.45 µM | 306% (20 μM) | 85.6% | 9.52 min | 20.5 min | 24.6 s | 5.05 min | 0.16 min | 0.26 min | – | – | 72500 nM | – | – | – | – |
| COC(=O)CC[C@H]1N=C(c2ccccc2Cl)c2cc(Cl)ccc2-n2c(SCCN3CCC(O)CC3)nnc21 [Compound 135, methyl (S)-3-(8-chloro-6-(2-chlorophenyl)-1-(2-((4-hydroxypiperidin-1-yl)ethyl)thio)-4H-benzo[f][1,2,4]triazolo[4,3-a][1,4]diazepin-4-yl)propionate] | – | 263% (20 μM) | 80.2% | 7.24 min | 13.6 min | – | 10.64 min | 0.22 min | 0.14 min | – | – | – | 0.75 µM | 31900 nM | 19.8 s | 16.64 min |
| Cc1ncc2n1-c1ccc(Cl)cc1C(c1ccccc1F)=NC2 [Midazolam, reference compound] | – | – | – | – | – | – | – | – | – | – | – | 7090 nM | – | – | – | – |
| COC(=O)CC[C@@H]1N=C(c2ccccc2F)c2cc(Cl)ccc2-n2c1n[nH]c2=S [Tautomer of compound 1, methyl (S)-3-(8-chloro-6-(2-fluorophenyl)-1-thio-2,4-dihydro-1H-benzo[f][1,2,4]triazolo[4,3-a][1,4]diazepin-4-yl)propionate] | – | 234% (20 μM) | 76.8% | 3.29 min | 9.6 min | – | 3.47 min | 0.21 min | 0.68 min | – | – | – | 0.72 µM | – | 279 s | 11.03 min |
